For assay [1], the target named is T1, human TLR7 (Homo sapiens, UniProt Q9NYK1).
T1 construct: host or cells: HEK-Blue cells
T1 sequence (Q9NYK1 27-1049): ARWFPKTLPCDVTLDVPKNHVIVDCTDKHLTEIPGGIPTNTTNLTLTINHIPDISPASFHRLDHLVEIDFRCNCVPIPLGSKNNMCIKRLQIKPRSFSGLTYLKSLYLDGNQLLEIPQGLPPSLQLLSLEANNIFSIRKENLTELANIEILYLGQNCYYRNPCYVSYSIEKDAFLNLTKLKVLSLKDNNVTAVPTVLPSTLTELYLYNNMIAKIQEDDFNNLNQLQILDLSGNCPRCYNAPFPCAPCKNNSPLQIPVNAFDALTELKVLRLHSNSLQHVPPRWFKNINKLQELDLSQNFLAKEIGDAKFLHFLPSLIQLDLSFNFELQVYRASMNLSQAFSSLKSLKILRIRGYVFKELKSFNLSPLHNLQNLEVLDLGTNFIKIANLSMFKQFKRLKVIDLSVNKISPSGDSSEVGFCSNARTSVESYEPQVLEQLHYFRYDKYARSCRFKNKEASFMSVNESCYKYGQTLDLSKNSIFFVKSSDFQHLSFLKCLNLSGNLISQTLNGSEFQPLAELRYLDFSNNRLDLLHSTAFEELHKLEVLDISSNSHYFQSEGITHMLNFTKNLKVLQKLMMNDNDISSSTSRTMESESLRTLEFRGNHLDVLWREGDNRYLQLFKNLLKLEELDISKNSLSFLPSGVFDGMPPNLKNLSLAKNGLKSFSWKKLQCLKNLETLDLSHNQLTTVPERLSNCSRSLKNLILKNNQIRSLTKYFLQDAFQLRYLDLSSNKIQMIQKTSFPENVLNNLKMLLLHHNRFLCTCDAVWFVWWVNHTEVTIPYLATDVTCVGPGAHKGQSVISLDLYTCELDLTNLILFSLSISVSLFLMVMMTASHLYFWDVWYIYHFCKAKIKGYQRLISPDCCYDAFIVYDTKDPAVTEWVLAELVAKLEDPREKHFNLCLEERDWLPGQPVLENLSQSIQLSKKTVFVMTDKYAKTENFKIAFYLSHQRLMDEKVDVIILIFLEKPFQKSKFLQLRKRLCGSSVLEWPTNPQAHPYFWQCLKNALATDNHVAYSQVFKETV
Put plainly: TLR7 inhibition reporter assay (HEK-Blue cells, SEAP reporter, gardiquimod stimulation). It is filed as cell-based. The note with it: HEK-Blue cells overexpressing human TLR7, gardiquimod 7.5 μM. The essentials:
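In this cell reporter format, test compounds at 0.05 nM-50 μM final incubate 22 h with seeded cells (TLR7 15000, TLR8 20,000 per well). SEAP read-out by HEK-Blue Detection medium yields % inhibition relative to agonist/DMSO and known-inhibitor wells.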
On the technique in general: In a reporter assay the amount or activity of a reporter protein is the signal.

Assay [2] has as its target T2, human TLR9 (Homo sapiens, UniProt Q9NR96).
T2 construct: host or cells: HEK-Blue cells
T2 sequence (Q9NR96 26-1032): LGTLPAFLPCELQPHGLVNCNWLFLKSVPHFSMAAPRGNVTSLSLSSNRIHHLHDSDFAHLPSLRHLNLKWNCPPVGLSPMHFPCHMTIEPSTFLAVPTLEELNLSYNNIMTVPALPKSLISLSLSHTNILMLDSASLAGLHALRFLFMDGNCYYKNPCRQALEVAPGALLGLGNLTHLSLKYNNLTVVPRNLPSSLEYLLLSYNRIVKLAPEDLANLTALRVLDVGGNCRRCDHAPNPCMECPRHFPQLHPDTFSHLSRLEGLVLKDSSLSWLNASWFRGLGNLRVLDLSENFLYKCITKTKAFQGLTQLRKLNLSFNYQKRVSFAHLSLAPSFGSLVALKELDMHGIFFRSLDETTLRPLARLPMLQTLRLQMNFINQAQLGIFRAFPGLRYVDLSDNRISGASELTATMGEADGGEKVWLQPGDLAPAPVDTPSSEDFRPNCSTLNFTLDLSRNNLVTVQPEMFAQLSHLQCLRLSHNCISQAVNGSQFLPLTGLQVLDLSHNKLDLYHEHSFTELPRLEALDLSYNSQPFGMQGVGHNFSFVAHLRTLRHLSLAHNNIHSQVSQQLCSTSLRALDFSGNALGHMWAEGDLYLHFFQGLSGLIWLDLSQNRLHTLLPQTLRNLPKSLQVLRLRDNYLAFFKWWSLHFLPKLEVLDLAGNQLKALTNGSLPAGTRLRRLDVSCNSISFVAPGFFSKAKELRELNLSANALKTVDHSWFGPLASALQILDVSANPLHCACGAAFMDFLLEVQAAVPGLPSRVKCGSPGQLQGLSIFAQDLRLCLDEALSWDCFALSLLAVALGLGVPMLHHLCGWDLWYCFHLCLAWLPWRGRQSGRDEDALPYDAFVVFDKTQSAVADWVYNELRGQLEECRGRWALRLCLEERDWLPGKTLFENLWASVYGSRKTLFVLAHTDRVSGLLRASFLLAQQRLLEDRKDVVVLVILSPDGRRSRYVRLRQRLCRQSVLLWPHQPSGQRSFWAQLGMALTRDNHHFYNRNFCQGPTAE
Briefly: TLR9 inhibition reporter assay (HEK-Blue cells, SEAP reporter, ODN2006 stimulation). It is filed as cell-based. The conditions noted are these: HEK-Blue cells overexpressing human TLR9, ODN2006 5 nM. The essentials:
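Dose–response from 0.05 nM to 50 μM was run in HEK-Blue human TLR7, TLR8 and TLR9 reporter cells. After 30 min at room temperature with compound, ligand was added (TLR7 gardiquimod 7.5 μM; TLR8 R848 15.9 μM; TLR9 ODN2006 5 nM) and SEAP measured next day, at 22 h.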

Consider 21 molecules from US11180474B2 (BRISTOL-MYERS SQUIBB COMPANY, priority 2016, dated 2021).

The term IC50 denotes the midpoint of a concentration-inhibition curve. Low readings indicate higher potency, high ones lower potency. Regarding `CCc1c(-c2ccc(OC)c(OC)c2)[nH]c2ccc(C3CCN(C(=O)NC(C)C)CC3)cc12` [Example 182, 4-(2-(3,4-dimethoxyphenyl)-3-ethyl-1H-indol-5-yl)-N-isopropylpiperidine-1-carboxamide], the IC50 is 0.61 µM in assay [1] and ≥ 50 µM in assay [2].
In the same order, the values of `COc1ccc(-c2[nH]c3ccc(C4CCN(Cc5ccccn5)CC4)cc3c2C)cc1OC` [Example 28, 2-(3,4-dimethoxyphenyl)-3-methyl-5-(1-(pyridin-2-ylmethyl)piperidin-4-yl)-1H-indole] are 0.638 µM and 1.01 µM.
In the same order, the values of `COc1ccc(-c2[nH]c3ccc(C4CCN(C5CCN(C6COC6)CC5)CC4)cc3c2C)cc1OC` [Example 83, 2-(3,4-dimethoxyphenyl)-3-methyl-5-(1′-(oxetan-3-yl)-[1,4′-bipiperidin]-4-yl)-1H-indole] are 2.63 µM and 1.55 µM.
In the same order, the values of `COc1ccc(-c2[nH]c3ccc(C4CCN(C5CCCNCC5)CC4)cc3c2C)cc1OC` (stereo not drawn) [Example 103, 5-(1-(azepan-4-yl)piperidin-4-yl)-2-(3,4-dimethoxyphenyl)-3-methyl-1H-indole] are 0.344 µM and 0.157 µM.
For the molecule `COc1ccc(-c2[nH]c3ccc(C4CCN(C(C)c5ccccc5)CC4)cc3c2C)cc1OC` (stereo not drawn) [Example 27, 2-(3,4-dimethoxyphenyl)-3-methyl-5-(1-(1-phenylethyl)piperidin-4-yl)-1H-indole], the IC50 in assay [1] came to 0.85 µM; in assay [2] it was 2.8 µM.
For the molecule `CCc1c(-c2ccc(OC)c(OC)c2)[nH]c2ccc(C3CCN(C(=O)CNC(CO)CO)CC3)cc12` [Example 165, 2-((1,3-dihydroxypropan-2-yl)amino)-1-(4-(2-(3,4-dimethoxyphenyl)-3-ethyl-1H-indol-5-yl)piperidin-1-yl)ethan-1-one], the results for the IC50 in assay [1] and in assay [2] were 0.107 µM and 5.17 µM, respectively.
In the same order, the values of `COc1ccc(-c2[nH]c3ccc(C4CCN(C5CCN(CCC(C)C)CC5)CC4)cc3c2C)cc1OC` [Example 77, 2-(3,4-dimethoxyphenyl)-5-(1′-isopentyl-[1,4′-bipiperidin]-4-yl)-3-methyl-1H-indole] are 0.522 µM and 0.218 µM.
In the same order, the values of `COc1ccc(-c2[nH]c3ccc(C4CCN(C5CCCC(N(C)C)C5)CC4)cc3c2C)cc1OC` (stereo not drawn) [Example 25, 3-(4-(2-(3,4-dimethoxyphenyl)-3-methyl-1H-indol-5-yl)piperidin-1-yl)-N,N-dimethylcyclohexan-1-amine] are 0.317 µM and 0.169 µM.
In the same order, the values of `COc1ccc(-c2[nH]c3ccc(C4CCN(Cc5cccnc5)CC4)cc3c2C)cc1OC` [Example 47, 2-(3,4-dimethoxyphenyl)-3-methyl-5-(1-(pyridin-3-ylmethyl)piperidin-4-yl)-1H-indole] are 0.589 µM and 1.08 µM.
On to `COc1ccc(-c2[nH]c3ccc(C4CCN(CCCO)CC4)cc3c2C)cc1OC` [Example 5, 3-(4-(2-(3,4-dimethoxyphenyl)-3-methyl-1H-indol-5-yl)piperidin-1-yl)propan-1-ol], for which the IC50 in assay [1] is 1.71 µM; in assay [2] it was 0.447 µM.
`COc1ccc(-c2[nH]c3ccc(C4CCN(Cc5cccc(C#N)c5)CC4)cc3c2C(C)C)cc1OC` [Example 264, 3-((4-(2-(3,4-dimethoxyphenyl)-3-isopropyl-1H-indol-5-yl)piperidin-1-yl)methyl)benzonitrile]: the IC50 came to 0.364 µM in assay [1] and 5.09 µM in assay [2].
`COc1ccc(-c2[nH]c3ccc(C4CCN(Cc5ccc(N6CCN(C)CC6)cc5)CC4)cc3c2C)cc1OC` [Example 42, 2-(3,4-dimethoxyphenyl)-3-methyl-5-(1-(4-(4-methylpiperazin-1-yl)benzyl)piperidin-4-yl)-1H-indole]: the IC50 was found to be 0.687 µM in assay [1] and 0.12 µM in assay [2].
As for `COc1ccc(-c2[nH]c3ccc(C4CCN(Cc5ccnc6ccccc56)CC4)cc3c2C)cc1OC` [Example 32, 4-((4-(2-(3,4-dimethoxyphenyl)-3-methyl-1H-indol-5-yl)piperidin-1-yl)methyl)quinoline], the values for the IC50 in assay [1] and in assay [2] were 2.48 µM and 3.59 µM, respectively.
For `COc1ccc(-c2[nH]c3ccc(C4CCN(C5CCN(CCCSC)CC5)CC4)cc3c2C)cc1OC` [Example 53, 2-(3,4-dimethoxyphenyl)-3-methyl-5-(1′-(3-(methylthio)propyl)-[1,4′-bipiperidin]-4-yl)-1H-indole] the same measures were 0.188 µM and 0.116 µM.
For `COc1ccc(-c2[nH]c3ccc(C4CCN(CCN(C)C5COC5)CC4)cc3c2C)cc1OC` [Example 109, N-(2-(4-(2-(3,4-dimethoxyphenyl)-3-methyl-1H-indol-5-yl)piperidin-1-yl)ethyl)-N-methyloxetan-3-amine] the same measures were ≥ 50 µM and 17 µM.
For `COc1ccc(-c2[nH]c3ccc(C4CCN(C5CCN(C6CCCC(C(F)(F)F)C6)CC5)CC4)cc3c2C)cc1OC` (stereo not drawn) [Example 79] the same measures were 2.32 µM and 0.122 µM.
Regarding `COc1ccc(-c2[nH]c3ccc(C4CCN(Cc5ccc6ccccc6n5)CC4)cc3c2C)cc1OC` [Example 35, 2-((4-(2-(3,4-dimethoxyphenyl)-3-methyl-1H-indol-5-yl)piperidin-1-yl)methyl)quinoline], the IC50 amounted to 2.68 µM in assay [1] and 1.43 µM in assay [2].
`COc1ccc(-c2[nH]c3ccc(C4CCN(Cc5ccc(OCCCN(C)C)cc5)CC4)cc3c2C)cc1OC` [Example 38, 3-(4-((4-(2-(3,4-dimethoxyphenyl)-3-methyl-1H-indol-5-yl)piperidin-1-yl)methyl)phenoxy)-N,N-dimethylpropan-1-amine]: the results for the IC50 in assay [1] and in assay [2] were 0.663 µM and 0.21 µM, respectively.
In the same order, the values of `COc1ccc(-c2[nH]c3ccc(C4CCN(C5CCN(C6CCCC(C(F)(F)F)C6)CC5)CC4)cc3c2C)cc1OC` (stereo not drawn) [Example 73] are 5.09 µM and 0.1 µM.
For `CCc1c(-c2ccc(OC)c(OC)c2)[nH]c2ccc(C3CCN(C(=O)CN(C)C(C)C)CC3)cc12` [Example 170, 1-(4-(2-(3,4-dimethoxyphenyl)-3-ethyl-1H-indol-5-yl)piperidin-1-yl)-2-(isopropyl(methyl)amino) ethan-1-one] the same measures were 0.257 µM and 1.67 µM.
In the same order, the values of `CNCCCN1CCC(c2ccc3[nH]c(-c4ccc(OC)c(OC)c4)c(C)c3c2)CC1` [Example 102, 3-(4-(2-(3,4-dimethoxyphenyl)-3-methyl-1H-indol-5-yl)piperidin-1-yl)-N-methylpropan-1-amine] are 0.559 µM and 0.382 µM.
